According to PMC5826726 (Biochemical pharmacology, 2017):
Like-named read-outs stand apart in the source and are kept apart here. Blank lines part the entries; values can stand above or below the compound they belong to.

How the values were obtained:
Caco-2 cells [1] = details: for Classification (Caco-2 permeability/efflux) / Efflux Ratio (Re): Caco-2; for Mean A➔B Papp / Mean B➔A Papp: Caco-2, pH 7.4
NNMT [2] = biological target: T1, NNMT (Mus musculus, UniProt O55239); details: read-out: IC50 (NNMT inhibition); biochemical assay; cited from earlier work
T1 sequence (O55239 1-264): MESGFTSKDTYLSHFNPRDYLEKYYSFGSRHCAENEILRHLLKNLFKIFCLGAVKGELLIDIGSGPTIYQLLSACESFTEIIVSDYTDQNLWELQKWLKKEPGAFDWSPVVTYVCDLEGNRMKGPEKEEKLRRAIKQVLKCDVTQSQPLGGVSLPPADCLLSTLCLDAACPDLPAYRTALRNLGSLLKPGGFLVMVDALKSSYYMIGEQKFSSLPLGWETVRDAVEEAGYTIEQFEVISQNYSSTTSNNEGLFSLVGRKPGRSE

[3] = PAMPA; for Flux: 4 h, 400 µM
recombinant human SIRT-1 = biological target: T2, recombinant human SIRT-1 (Homo sapiens, UniProt Q96EB6); assay: SIRT-1 fluorometric activity assay; format: biochemical
T2 sequence (Q96EB6 1-747): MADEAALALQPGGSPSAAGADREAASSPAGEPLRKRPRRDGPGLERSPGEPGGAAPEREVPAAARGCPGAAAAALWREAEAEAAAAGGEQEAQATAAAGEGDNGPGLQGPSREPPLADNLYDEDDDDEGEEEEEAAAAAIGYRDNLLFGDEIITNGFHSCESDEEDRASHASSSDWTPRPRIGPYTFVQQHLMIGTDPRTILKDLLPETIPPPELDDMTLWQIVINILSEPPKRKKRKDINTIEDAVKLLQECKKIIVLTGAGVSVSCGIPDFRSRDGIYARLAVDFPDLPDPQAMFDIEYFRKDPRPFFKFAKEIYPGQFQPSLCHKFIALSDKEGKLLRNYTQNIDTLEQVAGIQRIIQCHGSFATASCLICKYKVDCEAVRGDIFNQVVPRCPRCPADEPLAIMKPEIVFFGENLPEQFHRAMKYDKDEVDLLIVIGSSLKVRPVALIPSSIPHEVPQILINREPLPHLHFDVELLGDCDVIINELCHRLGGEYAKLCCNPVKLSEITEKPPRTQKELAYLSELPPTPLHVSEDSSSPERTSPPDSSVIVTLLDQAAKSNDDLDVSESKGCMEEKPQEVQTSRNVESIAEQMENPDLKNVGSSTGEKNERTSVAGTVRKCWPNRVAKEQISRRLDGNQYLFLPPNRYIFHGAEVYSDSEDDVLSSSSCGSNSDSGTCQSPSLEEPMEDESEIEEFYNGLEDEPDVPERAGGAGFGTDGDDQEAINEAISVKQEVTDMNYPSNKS

recombinant human PRMT3 = recombinant human PRMT3 (Homo sapiens, UniProt O60678); assay: PRMT3 radiometric activity assay; format: biochemical; details: for Inhibition of PRMT3: 10 nM to 200 µM (1,8-diMQ) or 600 µM (5-amino-1MQ)
3T3-L1 cells = assay: Adipocyte differentiation / lipogenesis by oil red O staining; format: cell-based; details: differentiating 3T3-L1 cells
recombinant human NAMPT = recombinant human NAMPT (Homo sapiens, UniProt P43490); assay: NAMPT fluorometric activity assay; format: biochemical
recombinant human DNMT1 = recombinant human DNMT1 (Homo sapiens, UniProt P26358); assay: DNMT1 radiometric activity assay; format: biochemical; details: for Inhibition of DNMT1: 10 nM to 200 µM (1,8-diMQ) or 600 µM (5-amino-1MQ); for IC50: read-out: IC50, DNA (cytosine-5)-methyltransferase 1, NI: no inhibition, NC: not calculable
[4] = test system: differentiated 3T3-L1 adipocytes; assay: Intracellular metabolites; details: 24 h
3T3-L1 pre-adipocytes = assay: MTT cell viability assay; format: cell-based; details: highest tested concentration (0.1 – 60 µM range, Figure 6C)
DIO C57Bl/6 mice = assay: Efficacy in diet-induced obese; format: in vivo
NNMT [5] = biological target: T1, NNMT; assay: Intracellular NNMT reaction product 1-MNA in cultured 3T3-L1 cells; details: 24 h; for 1-MNA levels in adipocytes relative to control: 10 µM; for Intracellular levels of 1-MNA vs untreated controls: 30 µM
Caco-2 cells [6] = assay: Bi-directional permeability assay with Caco-2 cells
recombinant human COMT = biological target: T3, recombinant human COMT (Homo sapiens, UniProt P21964); assay: COMT radiometric activity assay; format: biochemical
T3 sequence (P21964 1-271): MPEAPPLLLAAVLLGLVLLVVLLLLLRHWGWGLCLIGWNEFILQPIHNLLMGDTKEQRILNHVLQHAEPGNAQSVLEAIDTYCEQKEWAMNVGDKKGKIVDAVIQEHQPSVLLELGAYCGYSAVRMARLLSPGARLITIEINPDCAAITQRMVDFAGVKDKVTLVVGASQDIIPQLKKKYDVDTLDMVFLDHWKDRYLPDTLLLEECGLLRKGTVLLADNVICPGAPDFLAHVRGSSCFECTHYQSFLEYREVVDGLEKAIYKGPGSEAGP

[7] = Parallel artificial membrane permeability assay; details: for Flux: PAMPA passive transport, 400 µM donor in PBS, 4 h, room temperature; for Permeability Classification: PAMPA, BCS, Biopharmaceutics Classification System
[8] = DIO mice, 20 mg/kg SC three times daily, 11 days

recombinant human DNMT1, sequence (P26358 whole entry): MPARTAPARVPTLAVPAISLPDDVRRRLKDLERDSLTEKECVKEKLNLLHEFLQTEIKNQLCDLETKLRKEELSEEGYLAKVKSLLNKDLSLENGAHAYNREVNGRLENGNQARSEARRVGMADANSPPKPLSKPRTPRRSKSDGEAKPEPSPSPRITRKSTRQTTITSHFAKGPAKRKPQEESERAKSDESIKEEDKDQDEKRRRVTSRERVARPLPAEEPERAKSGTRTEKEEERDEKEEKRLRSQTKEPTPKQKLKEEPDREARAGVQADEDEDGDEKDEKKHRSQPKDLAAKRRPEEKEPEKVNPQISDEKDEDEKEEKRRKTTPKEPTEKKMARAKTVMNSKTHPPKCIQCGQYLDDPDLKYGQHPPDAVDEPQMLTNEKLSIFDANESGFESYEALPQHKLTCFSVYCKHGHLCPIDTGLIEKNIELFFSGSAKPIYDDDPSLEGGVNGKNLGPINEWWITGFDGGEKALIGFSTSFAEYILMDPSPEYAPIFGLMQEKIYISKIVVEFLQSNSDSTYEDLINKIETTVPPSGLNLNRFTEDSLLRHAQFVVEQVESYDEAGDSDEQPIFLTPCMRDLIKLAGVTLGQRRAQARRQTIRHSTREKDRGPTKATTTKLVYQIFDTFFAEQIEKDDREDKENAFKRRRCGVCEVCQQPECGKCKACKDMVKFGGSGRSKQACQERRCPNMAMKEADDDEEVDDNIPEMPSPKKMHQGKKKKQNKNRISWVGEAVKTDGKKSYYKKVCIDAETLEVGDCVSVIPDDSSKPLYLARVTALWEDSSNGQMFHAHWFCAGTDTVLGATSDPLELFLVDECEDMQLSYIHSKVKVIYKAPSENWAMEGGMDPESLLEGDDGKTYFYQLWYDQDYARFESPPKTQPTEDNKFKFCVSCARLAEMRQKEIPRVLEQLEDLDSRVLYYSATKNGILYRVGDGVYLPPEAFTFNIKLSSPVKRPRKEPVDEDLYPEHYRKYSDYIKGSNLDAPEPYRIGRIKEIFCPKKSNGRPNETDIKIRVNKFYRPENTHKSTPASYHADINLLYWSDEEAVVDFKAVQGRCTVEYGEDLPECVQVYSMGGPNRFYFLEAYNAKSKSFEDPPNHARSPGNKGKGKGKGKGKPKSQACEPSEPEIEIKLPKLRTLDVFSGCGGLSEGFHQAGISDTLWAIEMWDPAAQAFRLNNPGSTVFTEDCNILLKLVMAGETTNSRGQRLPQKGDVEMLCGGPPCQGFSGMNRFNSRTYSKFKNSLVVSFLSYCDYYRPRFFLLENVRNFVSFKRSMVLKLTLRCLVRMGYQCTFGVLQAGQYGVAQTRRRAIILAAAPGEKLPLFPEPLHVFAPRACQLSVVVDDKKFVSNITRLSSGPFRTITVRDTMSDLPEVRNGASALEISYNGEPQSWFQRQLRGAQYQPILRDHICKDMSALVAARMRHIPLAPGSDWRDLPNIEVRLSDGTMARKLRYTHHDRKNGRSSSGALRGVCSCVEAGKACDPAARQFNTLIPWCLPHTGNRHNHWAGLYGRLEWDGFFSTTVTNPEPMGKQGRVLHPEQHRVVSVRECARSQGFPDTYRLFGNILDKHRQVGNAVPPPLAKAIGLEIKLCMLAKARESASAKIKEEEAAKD
recombinant human NAMPT, sequence (P43490 whole entry): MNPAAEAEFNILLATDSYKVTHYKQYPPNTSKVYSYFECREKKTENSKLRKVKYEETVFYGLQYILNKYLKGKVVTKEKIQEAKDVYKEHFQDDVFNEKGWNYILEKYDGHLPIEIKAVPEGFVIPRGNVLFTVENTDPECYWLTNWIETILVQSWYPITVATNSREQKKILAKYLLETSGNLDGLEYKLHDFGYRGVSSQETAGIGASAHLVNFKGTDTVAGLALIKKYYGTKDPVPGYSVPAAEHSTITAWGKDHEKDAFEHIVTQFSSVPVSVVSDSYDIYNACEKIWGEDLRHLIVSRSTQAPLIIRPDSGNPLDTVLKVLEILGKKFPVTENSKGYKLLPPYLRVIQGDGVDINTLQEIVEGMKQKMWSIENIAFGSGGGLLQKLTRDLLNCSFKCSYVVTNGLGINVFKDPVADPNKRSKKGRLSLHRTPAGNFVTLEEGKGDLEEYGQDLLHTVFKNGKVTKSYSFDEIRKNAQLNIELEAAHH
recombinant human PRMT3, sequence (O60678 whole entry): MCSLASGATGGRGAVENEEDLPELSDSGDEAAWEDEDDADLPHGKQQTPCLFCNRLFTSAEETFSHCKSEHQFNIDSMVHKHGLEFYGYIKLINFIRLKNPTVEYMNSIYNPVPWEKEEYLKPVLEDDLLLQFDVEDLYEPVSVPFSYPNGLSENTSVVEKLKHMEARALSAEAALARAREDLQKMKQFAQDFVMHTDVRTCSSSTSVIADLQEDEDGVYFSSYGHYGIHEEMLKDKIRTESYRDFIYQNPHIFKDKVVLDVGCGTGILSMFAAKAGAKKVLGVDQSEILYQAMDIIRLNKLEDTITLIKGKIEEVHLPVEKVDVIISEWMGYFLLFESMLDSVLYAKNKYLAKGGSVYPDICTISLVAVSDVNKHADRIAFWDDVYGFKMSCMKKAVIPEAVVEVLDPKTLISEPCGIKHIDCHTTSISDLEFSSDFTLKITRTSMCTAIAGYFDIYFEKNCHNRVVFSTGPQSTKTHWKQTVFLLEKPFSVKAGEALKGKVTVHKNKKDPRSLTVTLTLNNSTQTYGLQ

Classification (Caco-2 permeability/efflux) (Caco-2 cells [1]): High permeability (no efflux)
Efflux Ratio (Re) (Caco-2 cells [1]): 1.52
Mean A➔B Papp (Caco-2 cells [1]): 26.0 10^−6 cm/s
Mean B➔A Papp (Caco-2 cells [1]): 39.6 10^−6 cm/s
Permeability Classification [3]: High permeability
Flux [3]: 2.055e-06 cm/s
SMILES: C[n+]1cccc2ccc(N)cc21 [7-amino-1MQ]
IC50 (NNMT [2]): 2.6 µM

Permeability Classification [3]: No permeability
SMILES: C[n+]1cccc2ccccc21 [1-MQ, 1-methylquinolinium]
IC50 (NNMT [2]): 12.1 µM

SMILES: C[n+]1cccc2c(N)cccc21 [5-amino-1MQ, 5-amino-1-methylquinolinium]
Classification (Caco-2 permeability/efflux) (Caco-2 cells [1]): High permeability (no efflux)
Mean A➔B Papp (Caco-2 cells [1]): 34.2 10^−6 cm/s
Mean B➔A Papp (Caco-2 cells [1]): 45.2 10^−6 cm/s
IC50 (NNMT [2]): 1.2 µM
Inhibition of SIRT1 (recombinant human SIRT-1; 10 nM – 300 µM): did not inhibit
SIRT1 activity (recombinant human SIRT-1; 600 µM): minor reduction
Inhibition of PRMT3 (recombinant human PRMT3): did not inhibit
Reduction of lipogenesis vs control untreated adipocytes (3T3-L1 cells; 30 µM): 50%
Reduction of lipogenesis vs control untreated adipocytes (3T3-L1 cells; 60 µM): 70%
IC50 (recombinant human NAMPT; read-out: IC50, Nicotinamide phosphoribosyl transferase, concentrations above 100 µM could not be tested due to interference in the assay readout signal): > 100 µM
Inhibition of NAMPT (recombinant human NAMPT; up to a tested concentration of 100 µM): did not inhibit
Inhibition of DNMT1 (recombinant human DNMT1): did not inhibit
IC50 (recombinant human DNMT1): > 200 µM
Intracellular NAD+ levels vs control ([4]; 10 µM): significant increase
Intracellular SAM levels vs control ([4]; 30 µM): significant increase
Intracellular levels of NA ([4]; 0.3–60 µM): no statistically significant main effect
Intracellular levels of SAH ([4]; 0.3–60 µM): no statistically significant main effect
Increase in NAD+ levels relative to control adipocytes ([4]; 1–60 µM): 1.2–1.6 fold
3T3-L1 cell viability vs untreated (3T3-L1 pre-adipocytes): only slightly reduced
Tolerability in dose escalation study (DIO C57Bl/6 mice; DIO mice (n=2), total dose of 60 mg/kg/day): well tolerated with no observable adverse effects
Decrease in adipocyte size (EWAT histology) vs control DIO mice (DIO C57Bl/6 mice; [8]): > 30%
Total cumulative food intake (DIO C57Bl/6 mice; [8]): 26.2 ± 1.4 g
Decrease in adipocyte volume vs control DIO mice (DIO C57Bl/6 mice; DIO mice, 20 mg/kg SC three times daily, 11 days (data not shown)): > 40%
Plasma total cholesterol lower relative to control DIO mice (DIO C57Bl/6 mice; DIO mice, 20 mg/kg SC three times daily, 11 days, 4 h fast): ~ 30%
Relative intracellular 1-MNA level (of level in untreated adipocytes) (NNMT [5]; adipocytes, 10–60 µM, plateau): ~ 40%
1-MNA levels in adipocytes relative to control (NNMT [5]; differentiated adipocytes): significantly decreased
Intracellular levels of 1-MNA vs untreated controls (NNMT [5]; differentiated adipocytes): significant reduction
Intracellular levels of 1-MNA vs untreated controls (NNMT [5]; pre-adipocytes): significant reduction
EC50 (NNMT [5]; read-out: EC50 (inhibition of NNMT, intracellular 1-MNA), fully differentiated adipocytes, 0.3–60 µM): 2.3 µM
Efflux Ratio (Re) (Caco-2 cells [6]; Re=Papp (B→A)/Papp (A→B)): 1.33
Permeability Classification [3]: High permeability
Flux [3]: 3.015e-06 cm/s
Inhibition of COMT (recombinant human COMT; maximal tested concentration 600 µM): 10%

SMILES: C[n+]1cccc(C(N)=O)c1 [1-MNA, 1-methylnicotinamide, reference compound]
Flux [7]: 0 cm/s
Permeability Classification [7]: No permeability

1-MNA levels in adipocytes relative to control (NNMT [5]; differentiated adipocytes): did not significantly decrease
Permeability Classification [3]: Low permeability
Flux [3]: 6.982e-07 cm/s
SMILES: Cc1cc(C)[n+](C)c2c(C)cccc12 [1,2,4,8-tetraMQ]
IC50 (NNMT [2]): 109 µM

SMILES: C[n+]1cccc2c(N)c(F)ccc21 [5-amino-6-fluoro-1MQ]
Inhibition of NAMPT (recombinant human NAMPT; concentrations between 30 and 600 µM (data not shown)): no inhibition

1-MNA levels in adipocytes relative to control (NNMT [5]; differentiated adipocytes): significantly decreased
Permeability Classification [3]: Moderate permeability
Flux [3]: 1.078e-06 cm/s
SMILES: C[n+]1cc(N)cc2cc(F)ccc21 [3-amino-6-fluoro-1MQ]
IC50 (NNMT [2]): 1.2 µM

Inhibition of PRMT3 (recombinant human PRMT3): did not inhibit
Inhibition of DNMT1 (recombinant human DNMT1): did not inhibit
IC50 (recombinant human DNMT1): > 200 µM
Flux [7]: 8.637e-07 cm/s
Permeability Classification [7]: Low permeability
Mean B➔A Papp (Caco-2 cells [6]; Caco-2, 10 µM, 2 h, pH 7.4): 1.78 10^−6 cm/s
Mean A➔B Papp (Caco-2 cells [6]; Caco-2, 10 µM, 2 h, pH 7.4, BLQ: no peak detected in receiver side sample): BLQ
Classification (Caco-2 permeability/efflux) (Caco-2 cells [6]; Caco-2 assay): Low permeability
Inhibition of COMT (recombinant human COMT; maximal tested concentration 200 µM): 20%
SMILES: Cc1cccc2ccc[n+](C)c12 [1,8-diMQ]
IC50 (NNMT [2]): 1.8 µM

Classification (Caco-2 permeability/efflux) (Caco-2 cells [1]): Moderate permeability (moderate efflux)
Efflux Ratio (Re) (Caco-2 cells [1]): 4.03
Mean A➔B Papp (Caco-2 cells [1]): 5.27 10^−6 cm/s
Mean B➔A Papp (Caco-2 cells [1]): 21.2 10^−6 cm/s
Permeability Classification [3]: High permeability
Flux [3]: 3.898e-06 cm/s
SMILES: C[n+]1c(N)c(N)cc2ccccc21 [2,3-diamine-1MQ]
IC50 (NNMT [2]): 2.8 µM

Permeability Classification [3]: High permeability
SMILES: c1ccc2ncccc2c1 [Quinoline, reference compound]

IC50 (recombinant human PRMT3; read-out: IC50, Protein arginine methyltransferase 3, NI: no inhibition, NC: not calculable): 6.6 ± 1.2 µM
SMILES: Nc1ncnc2c1ncn2[C@@H]1O[C@H](CSCC[C@H](N)C(=O)O)[C@@H](O)[C@H]1O [SAH, reference compound]
